According to patent US5620864A, “Acceptor for fucosyl transferase” (Health Research, Inc., priority 1992, dated 1997):

How the values were obtained:
[1] = target: T1, serum α1,3-L-fucosyltransferase (Homo sapiens, UniProt P51993); test: Assay of α1,3-fucosyltransferase with various synthetic acceptors, ovarian cancer sera as enzyme source; type: biochemical; conditions: for Relative Percent: 2'-methyl LacNAc = 100; for [14C] Fucose Incorporated (CPM): acceptor 0.3 mM, 37° C. 18 h
T1 construct: Sera were collected from healthy females and ovarian cancer patients; from tissue; host or cells: blood serum of ovarian cancer patients and healthy females
T1 sequence (P51993 35-359 limits assumed): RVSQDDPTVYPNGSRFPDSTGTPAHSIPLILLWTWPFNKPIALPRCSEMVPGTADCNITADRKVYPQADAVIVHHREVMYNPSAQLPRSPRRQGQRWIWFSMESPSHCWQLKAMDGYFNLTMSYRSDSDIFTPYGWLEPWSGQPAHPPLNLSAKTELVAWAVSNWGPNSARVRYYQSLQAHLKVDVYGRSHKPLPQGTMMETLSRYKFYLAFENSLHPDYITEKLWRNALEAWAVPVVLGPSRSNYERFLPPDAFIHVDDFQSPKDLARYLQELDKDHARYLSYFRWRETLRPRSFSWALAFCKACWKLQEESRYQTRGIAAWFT
Procedure: Sera were collected from healthy females and ovarian cancer patients admitted to Roswell Park Cancer Institute in Buffalo, N.Y., USA. Ovarian tumor tissues were obtained during surgical procedures from patients with ovarian cancer. Both sera and tissues were stored frozen at -70° C. until use.
(§1) An incubation mixture contained 50 mM HEPES-NaOH, pH 7.5, 5 mM MnC12, 7 mM ATP, 3 mM NaN3, the acceptor 0.3 mM (for serum enzyme) or 3.0 mM (for tumor enzyme), 0.125 μCi of GDP-[U-^14 C] Fuc (Sp. Act. 216 mCi/mmol) and enzyme in a total volume of 0.10 ml; the control incubation mixture had everything except the acceptor. At the end of incubation at 37° C. for 18 h, the mixture was diluted with 1 ml water and passed through Dowex-1-C1 column (1 ml in a Pasteur pipet). The column was washed twice with 1 ml water; the breakthrough and wash, which contained the [^14 C] fucosylated neutral acceptor, were collected together in a scintillation vial and counted for radioactivity using the scintillation coctail 3a70 (Research Products International, Mount Prospects, Ill.) and Beckman LS9000. The Dowex column was then eluted successively with 3 ml each of 0.1M and 0.2M NaCl; these eluates which contained the [^14 C] fucosylated sulfated acceptors, were counted for radioactivity as before. Corrections were made by subtracting the radioactivity in the water and NaCl eluates of the control incubation mixture from the corresponding test fractions. The duplicate runs of samples gave almost identical values, the difference being <5%.
The activity of serum α1,3-fucosyltransferase was measured with the specific substrate 2'-methyl LacNAc and compared with the ability of several other synthetic substrates to act as an acceptor of fucose.
When the structure of the acceptor 2'-methyl LacNAc was modified by replacing the methyl group with sulfate group in C-2', 3', 6' or 6 position and tested their ability to act as the acceptor of fucose, the following novel findings emerged. […] The β-benzyl glycoside of 3' sulfo LacNAc was quite active (168.4%) but less than the parent compound.

[2] = test system: α1,3-L-fucosyltransferase of the soluble fraction of human ovarian tumor; test: Assay of α1,3-fucosyltransferase with synthetic acceptors, partially purified enzyme of ovarian tumor soluble fraction; type: biochemical; conditions: for [14C] Fucose Incorporated (CPM): acceptor 3.0 mM, 37° C. 18 h
Procedure: as §1
As shown in the scheme set forth in FIG. 2, the α-L-fucosidase-free extract of the tissue (40 g), after concentration by 80% (NH4)2 SO4 precipitation was fractionated on bovine IgG glycopep-Sepharose in batches of 25 ml. After washing the column with the equilibration buffer, the bound enzyme was eluted with 1 M NaCl in the same buffer. The protein positive fractions were pooled and processed as shown in the scheme 2.0 ml of the above preparation was loaded on a Sephacryl S-200 column (Superfine:2.6 cm×88.0 cm) equilibrated at 4° C. with 50 mM Tris-HC1, pH 7.0 containing 0.15M NaCl and 0.1% Triton X-100 and eluted with the same buffer. Fractions of 3.0 ml were collected. The fucosyltransferase activity was located in the effluent fractions, by assaying first every 5th fraction and then obtaining the activity profile by assaying the alternate fractions in that range, using 2'-fucosyl LacNAc as the acceptor. […] Its elution position, which is slightly later than BSA, run separately on the same column, indicates its molecular weight as <67,000 daltons. […] The enzyme has been purified 66 fold over the soluble extract with a recovery of 6.2%. The enzyme at this stage lost its activity either kept frozen at -20° C. or left at 4° C. for more than a week. However, the enzyme at the end of the previous step was fairly stable for at least two months at 4° C. So this preparation of enzyme was used in acceptor ability comparison studies.
When α1,3-fucosyltransferase activity of the partially purified enzyme preparation from the soluble portion of ovarian tumor was measured and compared with the activity of other acceptors, the following results were obtained. 2'-methyl LacNAc, LacNAc and Galβ1, 3GlcNAc were respectively 100.0%, 60.6% and 565.5% active, indicating the presence of both α1,3 and α1,4 fucosyltransferase activities in this preparation.

[3] = test system: α1,3-L-fucosyltransferase of the particulate fraction of ovarian tumor; test: Assay of α1,3-fucosyltransferase with synthetic acceptors, ovarian tumor particulate fraction; type: biochemical, human; conditions: for Relative Percent: 2'-methyl LacNAc = 100; for [14C] Fucose Incorporated (CPM): acceptor 3.0 mM, 37° C. 18 h
Procedure: FIG. 2 The scheme for the preparation of the particulate and soluble fractions of human ovarian tumor.
as §1
This finding is quite different from what we found with the soluble fraction, where α1,4-fucosyltransferase activity seems to be greater than α1,3-fucosyltransferase activity. […] The different nature of the above enzymes was made further clear, when sulfated derivatives of LacNAc was tested as acceptors.

| Structure (SMILES) | Relative Percent [1] | [14C] Fucose Incorporated (CPM) [1] | Relative Percent ([2]; 2'-methyl LacNAc = 100) | [14C] Fucose Incorporated (CPM) [2] | Relative Percent [3] | [14C] Fucose Incorporated (CPM) [3] | Relative Percent ([2]; 2'-methyl LacNAc = 100, listed as Galβ1, 3 GlcNAc) | Relative Percent ([2]; 2'-methyl LacNAc = 100, listed as Galβ1, 3GlcNAc) |
| --- | --- | --- | --- | --- | --- | --- | --- | --- |
| CC(=O)N[C@H]1[C@H](O[C@H]2[C@@H](O)[C@@H](CO)O[C@@H](Oc3ccc([N+](=O)[O-])cc3)[C@@H]2O)O[C@H](CO)[C@@H](O[C@@H]2O[C@H](CO)[C@H](O)[C@H](O)[C@H]2O)[C@@H]1O [LacNAcβ1,3Ga1β-O--PNP] | 166.8% | 2886 CPM | 87.0% | 6432 CPM | 70.0% | 33759 CPM |  |  |
| CC(=O)N[C@H]1C(O)O[C@H](CO)[C@@H](O)[C@@H]1O[C@@H]1O[C@H](CO)[C@H](O)[C@H](O)[C@H]1O (stereo partly drawn) [Ga1β1,3G1cNAc] | 13.1% | 227 CPM | 565.5% | 41802 CPM | 34.2% | 16511 CPM | 566% | 565.5% |
| CC(=O)N[C@H]1C(O)O[C@H](CO)[C@@H](O[C@@H]2O[C@H](CO)[C@H](O)[C@H](O)[C@H]2O[C@@H]2O[C@@H](C)[C@@H](O)[C@@H](O)[C@@H]2O)[C@@H]1O (some centres unmarked) [2'-Fucosyl LacNAc, 2'-Fucosyl N-acetyllactosamine] | 253.1% | 4379 CPM | 436.1% | 32235 CPM | 144.7% | 69824 CPM |  |  |
